The source of these data is patent publication US6380396B1, “Quaternary ammonium compounds” (Pfizer Inc., priority 1997, dated 2002).

The target of one assay is T1, human NK1 receptor (Homo sapiens, UniProt P25103).
T1 construct: membranes prepared from the human IM9 cell line expressing the human NK1 receptor; endogenous in cells; host or cells: human IM9 cell line (membranes)
The assay can be described thus: inhibition of [3H]-Substance P binding to membranes from human IM9 cell line. The source says: The affinity of the compounds of the formula (I) for the human NK1 receptor can be determined in vitro by determining their ability to inhibit [^3H]-Substance P binding to membranes prepared from the human IM9 cell line expressing the human NK1 receptor using a modification of the method described in McLean, S. et al, J. Pharm.Exp.Ther., 267, 472-9 (1993) in which whole cells were used.

The target in the next assay is T2, human NK2 receptor (Homo sapiens, UniProt P21452).
T2 construct: expressed in transfected cells; host or cells: Chinese hamster ovary cells (membranes)
T2 sequence (P21452 1-398): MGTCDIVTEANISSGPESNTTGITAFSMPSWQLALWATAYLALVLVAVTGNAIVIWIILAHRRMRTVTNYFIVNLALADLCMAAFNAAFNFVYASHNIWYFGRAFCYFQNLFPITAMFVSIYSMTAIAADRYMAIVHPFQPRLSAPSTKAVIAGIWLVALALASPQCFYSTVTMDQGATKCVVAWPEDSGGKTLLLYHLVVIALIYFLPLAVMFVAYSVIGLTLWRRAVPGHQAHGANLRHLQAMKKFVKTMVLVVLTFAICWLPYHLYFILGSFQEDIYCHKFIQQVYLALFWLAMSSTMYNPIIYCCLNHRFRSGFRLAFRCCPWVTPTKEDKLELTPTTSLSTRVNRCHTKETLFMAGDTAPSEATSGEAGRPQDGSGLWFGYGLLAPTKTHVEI
The assay can be described thus: competition with [3H]-NKA for binding to membranes from Chinese hamster ovary cells expressing the cloned receptor. Particulars: CHO cell membranes, 90 min, 25° C. How it is done:
The affinity of the compounds of formula (I) for the human NK2 receptor can be determined in vitro by determining their ability to compete with [^3H]-NKA (neurokinin A) for binding to membranes prepared from Chinese hamster ovary cells expressing the cloned human NK2 receptor. In this method, washed Chinese hamster ovary cell membranes are prepared as described for the previous method where IM9 cells are used instead. The membranes are incubated (90 min, 25° C.) with [^3H]-NKA and with a range of concentrations of the test compound. Non-specific binding is determined in the presence of 10 μM NKA.

T1 sequence (P25103 whole entry): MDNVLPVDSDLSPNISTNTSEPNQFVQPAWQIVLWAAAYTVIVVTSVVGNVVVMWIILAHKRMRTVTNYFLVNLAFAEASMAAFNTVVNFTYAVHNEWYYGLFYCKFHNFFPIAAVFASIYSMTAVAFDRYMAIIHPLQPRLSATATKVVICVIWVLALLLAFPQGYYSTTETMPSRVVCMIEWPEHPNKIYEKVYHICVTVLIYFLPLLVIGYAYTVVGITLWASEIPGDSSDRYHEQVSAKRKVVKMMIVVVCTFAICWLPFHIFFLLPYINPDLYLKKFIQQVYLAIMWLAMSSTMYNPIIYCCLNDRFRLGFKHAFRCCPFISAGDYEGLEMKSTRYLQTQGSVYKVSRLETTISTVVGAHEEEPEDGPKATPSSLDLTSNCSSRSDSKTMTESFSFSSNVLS

What is called IC50 is the point on the concentration scale where inhibition reaches its midpoint. On to `O=C(c1cccc2c1CCCC2)c1nccn1C[C@@H](CC[N+]12CCC(c3ccccc3)(CC1)CC2)c1ccc(Cl)c(Cl)c1` [Example 18, 4-Phenyl-1-(3(S)-[3,4-dichlorophenyl]-4-[2-(1,2,3,4-tetrahydro-5-naphthoyl)imidazol-1-yl]butyl)quinuclidinium methanesulphonate], for which the IC50 on human NK1 receptor came out at 123 nM; at human NK2 receptor, 3 nM.

Take `O=C(c1cccc2c1CCCC2)c1nccn1C[C@H](CC[N+]12CCC(c3ccccc3)(CC1)CC2)c1ccc(Cl)c(Cl)c1` [Example 19, 4-Phenyl-1-(3(R)-[3,4-dichlorophenyl]-4-[2-(1,2.3,4-tetrahydro-5-naphthoyl)imidazol-1-yl]butyl)quinuclidinium methanesulphonate]: the IC50 at human NK1 receptor is 2 nM; at human NK2 receptor it was 24 nM.

For `Cc1cccc(C(=O)c2nccn2CC(CC[N+]23CCC(c4ccccc4)(CC2)CC3)c2ccc(Cl)c(Cl)c2)c1C` (stereo not shown) [Example 2], the results for the IC50 at human NK1 receptor and on human NK2 receptor were 0.6 nM and 4 nM, respectively.

`O=C(c1cccc2c1OCC2)c1nccn1CC(CC[N+]12CCC(c3ccccc3)(CC1)CC2)c1ccc(Cl)c(Cl)c1` (stereo not shown) [Example 5]: the concentration for half-maximal inhibition (IC50) at human NK1 receptor was 8 nM; on human NK2 receptor, 11 nM.

Regarding `O=C(c1ccc2ccccc2c1)c1nccn1CC(CC[N+]12CCC(c3ccccc3)(CC1)CC2)c1ccc(Cl)c(Cl)c1` (stereo not shown) [Example 6], the half-inhibitory concentration (IC50) at human NK1 receptor came out at 9 nM; on human NK2 receptor, 96 nM.
